Data reported in patent publication US20250101063A1, “POLYPEPTIDE COMPOUND AND USE THEREOF IN TREATMENT OF ENTERITIS” (Sichuan Gooddoctor Panxi Pharmaceutical Co., Ltd., priority 2022, published 2025).
Where no end group is shown, it is not given here. [ ]: non-standard residue; d: D form.

Tested on: zebrafish model of intestinal mucosal injury
Assay: Efficacy in relieving colitis: intestinal lumen area in TNBS-treated zebrafish
Type: in vivo
Design: key to Activity in relieving intestinal lumen dilatation: * p < 0.05; ** p < 0.01; *** p < 0.001; “−“ indicates absence of activity; “+” indicates some relief of intestinal lumen dilatation; “#” indicates that all the zebrafishes died in the experiment; “&” indicates that 13 zebrafishes died in the experiment
Conditions: for Intestinal lumen area (pixels, mean ± SE): 2 days after TNBS, n = 10; for Activity in relieving intestinal lumen dilatation: 1000 μg/mL, significance vs model control group of the same batch; for Intestinal lumen area compared with the model control group (in words): 250, 500, 1000 μg/mL, Table 4
Protocol: Experimental animals: Wild-type AB strain zebrafishes, bred by natural pair mating. Zebrafishes aged 3 days post fertilization (3 dpf). Zebrafishes were kept in fish farming water at 28° C. (water quality: 200 mg of instant sea salt in each 1L of reverse osmosis water, with the conductivity of 450-550 μS/cm; pH of 6.5-8.5; and hardness of 50-100 mg/L CaCO3), the experimental animal use license number is: SYXK (Zhe) 2012-0171, and the breeding management met the requirements of the international AAALAC certification (certification number: 001458).
(1) Grouping: Polypeptide group: prepared into a stock solution of 20.0 mg/mL with ultrapure water and stored at −20° C.
Positive control group: prednisone, as white powder, with batch number C10016501, Shanghai Macklin Biochemical Technology Co., Ltd., stored at 4° C.; prepared into a 15.0 mg/mL stock solution with DMSO, and stored in aliquots at −20° C.
Normal control group and model control group.
(2) Experimental method: 3 dpf wild-type AB strain zebrafishes were randomly selected and placed in a 6-well plate, with 30 zebrafishes in each well (experimental group). Except for the normal control group, all other experimental groups were given TNBS in water to establish the zebrafish model of intestinal mucosal injury. After 2 days of treatment at 28° C., TNBS was removed, and polypeptide compound in water (at concentrations shown in Table 4) was given respectively, and for the positive control, prednisone was 15.0 μg/mL. A normal control group (healthy group) and a model control group (intestinal mucosal injury group) were set up at the same time. The capacity of each well (experimental group) was 3 mL. After 2 days of treatment at 28° C., 10 zebrafishes were randomly selected from each experimental group and photographed under a dissecting microscope. NIS-Elements D 3.20 advanced image processing software was used to analyze and collect data, and the intestinal lumen area of the zebrafish was analyzed. The statistical analysis results of this indicator were used to evaluate the efficacy of the samples in relieving colitis. The statistics results were expressed as mean±SE. SPSS26.0 software was used for statistical analysis, and p<0.05 indicates statistically significant difference.
The concentration gradient of the test substances set in this experimental system was 250 μg/mL, 500 μg/mL, and 1000 μg/mL. […] When the concentration of the test substance was further increased for intervention, the death phenomenon of zebrafishes was found in the group; therefore, in the subsequent rounds of activity evaluation, each test polypeptide compound was uniformly administered at 1000 μg/mL for intervention.

| Compound | Activity in relieving intestinal lumen dilatation | further results |
| --- | --- | --- |
| C[C@]12C=CC(=O)C=C1CC[C@@H]1[C@@H]2C(=O)C[C@@]2(C)[C@H]1CC[C@]2(O)C(=O)CO [Prednisone, prednisone, reference compound] |  | Intestinal lumen area (pixels, mean ± SE) (15.0 μg/mL (positive control)): 34929 ± 1913 pixels |
| AEPVPQAKPRKVAAQ [Compound 19] | + |  |
| APVPQAK [Compound 46] | + |  |
| Ala-Lys-Pro-Arg (AKPR; printed: Ala-Lys-Pro-Arg) [Compound 11] | + |  |
| Arg-Lys-Val-Ala (RKVA; printed: Arg-Lys-Val-Ala) [Compound 15] | * (* p < 0.05) | Intestinal lumen area (pixels, mean ± SE) (250 μg/mL in water): 40719 ± 4647 pixels; Intestinal lumen area (pixels, mean ± SE) (500 μg/mL in water): 31319 ± 5274 pixels; Intestinal lumen area (pixels, mean ± SE) (1000 μg/mL in water): 30268 ± 2437 pixels; Intestinal lumen area compared with the model control group (in words): significant statistical differences compared with the model control group |
| D-Glu-Pro-Val-Pro-Gln-Ala-Lys ([dE]PVPQAK; also: acetate salt) [Compound 78] | + |  |
| DPVPQAK [Compound 49] | * (* p < 0.05) |  |
| EAVPQAK [Compound 53] | * (* p < 0.05) |  |
| EGVPQAK [Compound 76] | + |  |
| EPAPQAK [Compound 52] | + |  |
| EPVAQAK [Compound 54] | *** (*** p < 0.001) |  |
| EPVGQAK [Compound 77] | − |  |
| EPVPAAK [Compound 47] | + |  |
| EPVPEAK [Compound 55] | * (* p < 0.05) |  |
| EPVPQAA [Compound 48] | ** (** p < 0.01) |  |
| EPVPQAKP [Compound 58] | + |  |
| EPVPQAKPR [Compound 57] | ** (** p < 0.01) |  |
| EPVPQAKPRK [Compound 38] | * (* p < 0.05) |  |
| EPVPQAKPRKVA [Compound 51] | * (* p < 0.05) |  |
| EPVPQAKVPY [Compound 102] | + |  |
| EPVPQAR [Compound 45] | # |  |
| EPVPQA[dK] [Compound 84] | + |  |
| EPVPQ[dA]K [Compound 83] | * (* p < 0.05) |  |
| EPVP[dQ]AK [Compound 82] | + |  |
| EPV[dP]QAK [Compound 81] | + |  |

| Compound | Activity in relieving intestinal lumen dilatation | further results |
| --- | --- | --- |
| EP[dV]PQAK [Compound 80] | + |  |
| E[dP]VPQAK [Compound 79] | + |  |
| GPETAFLREPVPQAK [Compound 96] | *** (*** p < 0.001) |  |
| GPETAFLRKEPVPQAKPRKVAAQ [Compound 95] | ** (** p < 0.01) |  |
| Gln-Ala-Lys-Pro (QAKP; printed: Gln-Ala-Lys-Pro) [Compound 17] | + |  |
| Glu-Pro-Val-Pro (EPVP; printed: Glu-Pro-Val-Pro) [Compound 9] | ** (** p < 0.01) |  |
| Glu-Pro-Val-Pro-Gln (EPVPQ; printed: Glu-Pro-Val-Pro-Gln) [Compound 86] | * (* p < 0.05) |  |
| KAPVPQAKPRKVAAQ [Compound 20] | & |  |
| KEAVPQAKPRKVAAQ [Compound 21] | + |  |
| KEGVGQAKGRKVAAQ [Compound 35] | − |  |
| KEGVGQAKPRKVAAQ [Compound 37] | + |  |
| KEGVPQAKGRKVAAQ [Compound 36] | + |  |
| KEGVPQAKPRKVAAQ [Compound 31] | * (* p < 0.05) |  |
| KEPAPQAKPRKVAAQ [Compound 25] | ** (** p < 0.01) |  |
| KEPIPQAKPRKVAAQ [Compound 106] | ** (** p < 0.01) |  |
| KEPVAQAKPRKVAAQ [Compound 22] | + |  |
| KEPVGQAKGRKVAAQ [Compound 34] | * (* p < 0.05) |  |
| KEPVGQAKPRKVAAQ [Compound 32] | + |  |
| KEPVPAAKPRKVAAQ [Compound 23] | + |  |
| KEPVPQ [Compound 87] | + |  |
| KEPVPQAAPRKVAAQ [Compound 24] | + |  |
| KEPVPQAK [Compound 4] | * (* p < 0.05) | Intestinal lumen area (pixels, mean ± SE) (250 μg/mL in water): 48915 ± 2720 pixels; Intestinal lumen area (pixels, mean ± SE) (500 μg/mL in water): 40432 ± 3736 pixels; Intestinal lumen area (pixels, mean ± SE) (1000 μg/mL in water): 33664 ± 3758 pixels; Intestinal lumen area compared with the model control group (in words): significant statistical differences compared with the model control group |
| KEPVPQAKARKVAAQ [Compound 26] | * (* p < 0.05) |  |
| KEPVPQAKGRKVAAQ [Compound 33] | + |  |
| KEPVPQAKPAKVAAQ [Compound 27] | + |  |

| Compound | Activity in relieving intestinal lumen dilatation | further results |
| --- | --- | --- |
| KEPVPQAKPRAVAAQ [Compound 28] | + |  |
| KEPVPQAKPRKAAAQ [Compound 29] | * (* p < 0.05) |  |
| KEPVPQAKPRKVAAA [Compound 30] | + |  |
| KEPVPQAKPRKVAAE [Compound 103] | * (* p < 0.05) |  |
| KEPVPQAKPRKVAAN [Compound 104] | *** (*** p < 0.001) |  |
| KEPVPQAKPRKVAA[dQ] [Compound 75] | * (* p < 0.05) |  |
| KEPVPQAKPRKVA[dA]Q [Compound 74] | + |  |
| KEPVPQAKPRK[dV]AAQ [Compound 72] | ** (** p < 0.01) |  |
| KEPVPQAKPR[dK]VAAQ [Compound 71] | + |  |
| KEPVPQAKP[dR]KVAAQ [Compound 70] | * (* p < 0.05) |  |
| KEPVPQAK[dP]RKVAAQ [Compound 69] | + |  |
| KEPVPQA[dK]PRKVAAQ [Compound 68] | ** (** p < 0.01) |  |
| KEPVPQ[dA]KPRKVAAQ [Compound 67] | * (* p < 0.05) |  |
| KEPVP[dQ]AKPRKVAAQ [Compound 66] | * (* p < 0.05) |  |
| KEPV[dP]QAKPRKVAAQ [Compound 65] | * (* p < 0.05) |  |
| KEP[dV]PQAKPRKVAAQ [Compound 64] | + |  |
| KE[dP]VPQAKPRKVAAQ [Compound 63] | *** (*** p < 0.001) |  |
| KQPVPQAKPRKVAAQ [Compound 105] | ** (** p < 0.01) |  |
| K[dE]PVPQAKPRKVAAQ [Compound 62] | * (* p < 0.05) |  |
| Lys-Glu-Pro-Val (KEPV; printed: Lys-Glu-Pro-Val) [Compound 7] | + |  |
| Lys-Glu-Pro-Val-Pro (KEPVP; printed: Lys-Glu-Pro-Val-Pro) [Compound 85] | * (* p < 0.05) |  |
| Lys-Pro-Arg-Lys (KPRK; printed: Lys-Pro-Arg-Lys) [Compound 10] | ** (** p < 0.01) |  |
| Lys-Val-Ala-Ala (KVAA; printed: Lys-Val-Ala-Ala) [Compound 16] | + |  |
| NPVPQAK [Compound 50] | * (* p < 0.05) |  |
| PAYKEPVPQAKPRKVAAQ [Compound 90] | * (* p < 0.05) |  |
